Tests used:
[1] = test system: Botryotinia fuckeliana (Botrytis cinerea); assay: Botryotinia fuckeliana (Botrytis cinerea) / liquid culture (Gray Mould); type: cell-based; details: 72 h, 200 ppm in the formulation, inhibition of growth determined photometrically 3-4 days after application, read-out: disease control
Description: (§1) Botryotinia fuckeliana (Botrytis cinerea)/Liquid Culture (Gray Mould) Conidia of the fungus from cryogenic storage are directly mixed into nutrient broth (Vogels broth). After placing a (DMSO) solution of test compound into a microtiter plate (96-well format), the nutrient broth containing the fungal spores is added. The test plates are incubated at 24° C. and the inhibition of growth is determined photometrically 3-4 days after application.

[2] = test system: Glomerella lacenarium (Colletotrichum lacenarium); assay: Glomerella lacenarium (Colletotrichum lacenarium) / liquid culture (Anthracnose); type: cell-based; details: 200 ppm in the formulation, inhibition of growth measured photometrically 3-4 days after application, read-out: disease control
Description: as §1, with “Glomerella lacenarium (Colletotrichum lacenarium)/Liquid” for “Botryotinia fuckeliana (Botrytis cinerea)/Liquid”, “(Anthracnose)” for “(Gray Mould)”, “(PDB potato dextrose” for “(Vogels”, “measured” for “determined”

[3] = test system: Magnaporthe risea (Pyricularia Oryzae); assay: whole plant or invertebrate; type: in vivo; details: foliar, read-out: disease control
[4] = test system: Monocraphella nivalis (Microdochium nivale); assay: Monocraphella nivalis (Microdochium nivale) / liquid culture (Foot Rot Cereals); type: cell-based; details: 96 h, 200 ppm in the formulation, inhibition of growth determined photometrically 4-5 days after application, read-out: disease control
Description: as §1, with “Monocraphella nivalis (Microdochium nivale)/Liquid” for “Botryotinia fuckeliana (Botrytis cinerea)/Liquid”, “(Foot Rot Cereals)” for “(Gray Mould)”, “(PDB potato dextrose” for “(Vogels”, “4-5” for “3-4”

[5] = test system: Mycosphaerella arachidis (Cercospora arachidicola); assay: Mycosphaerella arachidis (Cercospora arachidicola) / liquid culture (Early Leaf Spot); type: cell-based; details: 96 h, 200 ppm in the formulation, inhibition of growth determined photometrically 4-5 days after application, read-out: disease control
Description: as §1, with “Mycosphaerella arachidis (Cercospora arachidicola)/Liquid” for “Botryotinia fuckeliana (Botrytis cinerea)/Liquid”, “(Early Leaf Spot)” for “(Gray Mould)”, “(PDB potato dextrose” for “(Vogels”, “4-5” for “3-4”

[6] = test system: Mycosphaerella Raminicola (Septoria tritici); assay: Mycosphaerella Raminicola (Septoria tritici) / liquid culture (Septoria Blotch); type: cell-based; details: 200 ppm in the formulation, inhibition of growth determined photometrically 4 to 5 days after application, read-out: disease control
Description: as §1, with “Mycosphaerella Raminicola (Septoria tritici)/Liquid” for “Botryotinia fuckeliana (Botrytis cinerea)/Liquid”, “(Septoria Blotch)” for “(Gray Mould)”, “(PDB potato dextrose” for “(Vogels”, “4 to 5” for “3-4”

[7] = test system: Phaeosphaeria Nodorum (Septoria nodorum); assay: Phaeosphaeria nodorum (Septoria nodorum) / wheat / leaf disc preventative (Glume Blotch); type: in vivo; details: Parastagonospora nodorum, foliar, 200 ppm in the formulation, compared to untreated, 5-7 days after application, read-out: disease control
Description: Phaeosphaeria Nodorum (Septoria nodorum)/Wheat/Leaf Disc Preventative (Glume Blotch) Wheat leaf segments cv. Kanzler are placed on agar in a multiwell plate (24-well format) and sprayed with the formulated test compound diluted in water. The leaf disks are inoculated with a spore suspension of the fungus 2 days after application. The inoculated test leaf disks are incubated at 20° C. and 75% rh under a light regime of 12 h light/12 h darkness in a climate cabinet and the activity of a compound is assessed as percent disease control compared to untreated when an appropriate level of disease damage appears in untreated check leaf disks (5-7 days after application).

[8] = test system: Puccinia recondita f. Sp. Tritici; assay: Puccinia recondita f. sp. tritici / wheat / leaf disc preventative (Brown Rust); type: in vivo; details: foliar, 168 h, 200 ppm in the formulation, compared to untreated, 7-9 days after application, read-out: disease control

COc1ccnc(C(=O)N[C@@H](C)C(=O)OC(C)C2(c3ccccc3)CC2c2ccccc2)c1O (stereo partly drawn) [I.a.010, 1-(1,2-diphenylcyclo-propyl)ethyl (2S)-2-[(3-hydroxy-4-methoxy-pyridine-2-carbonyl)-amino]propanoate]
≥ 80%: inhibition of growth at 200 ppm [1] | inhibition of growth at 200 ppm [2] | pest or weed control at 200 ppm [3] | inhibition of growth at 200 ppm [4] | inhibition of growth at 200 ppm [5] | inhibition of growth at 200 ppm [6] | pest or weed control at 200 ppm [7] | pest or weed control at 200 ppm [8]

— patent US11395489B2, “Microbiocidal picolinamide derivatives” (Syngenta Participations AG, priority 2017, dated 2022)
